Test results published in US9364494B2, “Somatostatin 2 receptor (sst2), deoxycytidine kinase (dck) and uridine monophosphate kinase (umk) pancreatic gene therapy” (Institut National de la Sante et de la Recherche Medicale …, priority 2007, dated 2016).

Key:
PC1.0 cells [1] = assay type: in vivo; settings: day 15 post-cell implantation; 25 to 50 μg expression vector intra-tumoral; gemcitabine i.p. 80 to 120 mg/kg/day every three days
PC1.0 cells [2] = tested on: PC1.0 cells; design: species or system Syrian golden hamsters; settings: hamster, in vivo, ip, 120 mg/kg/day

With `Cl.Nc1ccn([C@@H]2O[C@H](CO)[C@@H](O)C2(F)F)c(=O)n1` [Gemcitabine, No DNA, 2′-deoxy-2′,2′-difluorocytidine monohydrochloride] the “Tumor progression (percentage)” value (PC1.0 cells [1]) was “+150 to 378 percentage” and the “tumor evolution on day 15” value (PC1.0 cells [2]) was “only slow down the tumor progression”.
